Measured values from patent publication US6846827B1, “Pyrimidine derivatives” (AstraZeneca AB, priority 1999, dated 2005).
pIC50: −log10 of the molar value.

How the values were obtained:
p38α = molecular target: T1, p38α (Homo sapiens, UniProt Q16539); experiment: In vitro enzyme assay, p38α; assay type: biochemical; conditions: read-out: IC50 against p38α
T1 construct: c-myc (N); 6His (N); made in house; host or cells: E. coli (PET vectors)
Procedure: The ability of compounds of the invention to inhibit the enzyme p38 kinase was assessed. Activity of test compounds against each of the p38α and p38β isoforms of the enzyme was determined. […]
Test compounds were solubilised in DMSO and 10 μl of a 1:10 diluted sample in ‘Kinase Buffer’ was added to a well in a Microtiter plate. […] The precipitated protein was phosphorylated by p38 kinase and test compounds were assessed for their ability to inhibit this phosphorylation. The plates were filtered using a Canberra Packard Unifilter and washed with 2% TCA, dried overnight and counted on a Top Count scintillation counter.
Test compounds were tested initially at a single dose and active compounds were retested to allow IC50 values to be determined.

[1] = tested on: TNFα production in human whole blood; experiment: Human Whole Blood test: inhibition of LPS-stimulated TNFα production; assay type: cell-based
Procedure: The ability of the compounds of this invention to inhibit TNFα production was also assessed in a human whole blood assay. Human whole blood secretes TNFα when stimulated with LPS. This property of blood forms the basis of an assay which is used as a secondary test for compounds which profile as active in the PBMC test.
Heparinised (10 units/ml) human blood was obtained from volunteers. 160 μl whole blood were added to 96 well round-bottom plates (Corning 25850). Compounds were solubilised and serially diluted in RPMI 1640 medium (Gibco) supplemented with 50 units/ml penicillin, 50 μg/ml streptomycin and 2 mM glutamine, as detailed above. 20 μl of each test concentration was added to appropriate wells (triplicate cultures). 20 μl of RPMI 1640 medium supplemented with antibiotics and glutamine was added to control wells. Plates were incubated for 30 minutes at 37° C. (humidified incubator), prior to addition of 20 μl LPS (final concentration 10 μg/ml). RPMI 1640 medium was added to control wells. Six “LPS alone” and four “medium alone” controls were included on each plate. A known TNFα synthesis/secretion inhibitor was included in each test. Plates were incubated for 6 hours at 37° C. (humidified incubator). […] TNFα levels were measured by ELISA (see WO92/10190 and Current Protocols in Molecular Biology, vol 2 by Frederick M. Ausbel et al., John Wiley and Sons Inc.). […]

T1 sequence (Q16539 whole entry): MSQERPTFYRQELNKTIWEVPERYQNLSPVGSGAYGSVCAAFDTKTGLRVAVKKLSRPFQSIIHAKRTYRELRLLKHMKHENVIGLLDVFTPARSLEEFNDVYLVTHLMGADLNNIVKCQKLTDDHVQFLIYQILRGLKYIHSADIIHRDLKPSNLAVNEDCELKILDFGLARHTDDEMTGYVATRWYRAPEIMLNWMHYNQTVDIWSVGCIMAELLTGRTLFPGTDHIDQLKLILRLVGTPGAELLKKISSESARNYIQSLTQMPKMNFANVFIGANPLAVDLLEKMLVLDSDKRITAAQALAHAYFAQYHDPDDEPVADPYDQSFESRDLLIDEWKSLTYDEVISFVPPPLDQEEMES

- pIC50 (p38α): ~7.52
- pIC50 [1]: ~4.80
SMILES: Cc1ccc(NC(=O)c2cc(F)cc(N3CCOCC3)c2)cc1Nc1cc(C(N)=O)nc(Cl)n1 [6-Carbamoyl-2-chloro-4-[5-(3-fluoro-5-morpholinobenzamido)-2-methylanilino]-pyrimidine]
